Each structure is given as a SMILES string. Bounds are passed on as bounds.

One molecule from article PMC11117716 (Biomolecules, 2024) can be followed below.

Series [1] is described as follows: Plasma pharmacokinetics after oral Posiphen in Beagle dogs (LC-MS/MS). The following applies: for Mean plasma concentration: Beagle dogs, Posiphen 20 mg/kg; for Tmax: dog plasma, Posiphen PO 20 mg/kg, n = 12. Also on record: species or system dog. The protocol: In rats and dogs, blood samples were centrifuged, and the resultant plasma was separated, and 200 µL (rat) or 400 µL (dog) of plasma was transferred to uniquely labeled pre-chilled polypropylene tubes containing 5 µL (rat) or 10 µL (dog) Dichlorvos spiking solution (nominal concentration of 0.82 mg/mL in MeOH/Water, 20/80, v/v).
(§1) The detection limit was 0.025 ng/mL.

A short description of series [2]: Plasma pharmacokinetics after oral Posiphen in humans (LC-MS/MS). The conditions noted are these: for Tmax: Posiphen PO 80 mg/day (1.1 mg/kg), n = 4. It counts as in vivo, human. The protocol:
(§2) This paper describes data from multiple studies.
Samples were frozen and then stored at −80 °C.
as §1

A short description of the next series: LogD. In kind it is physicochemical.
Series [3] in a line: Population pharmacokinetic analysis (Nonmem) in healthy volunteers and Alzheimer's and Parkinson's patients. In kind it is in vivo, human. The following applies: popPK. As for the experimental part: Population pharmacokinetic analysis was conducted using data from healthy volunteers from Study 101 (single ascending dose study with 72 subjects) and Study 102 (multiple dose study with 48 volunteers) and in patients (multiple dose study in 68 patients with early Alzheimer’s or early Parkinson’s disease). Data were fit using a Bayesian approach as implemented in the software package Nonmem® (version 7.5.1, Icon Development Solutions, Dublin, Ireland). Standard model building approaches were used. After a base model was established, covariates were evaluated singly and assessed graphically using eta plots—The full model consisted of all statistically significant covariates identified during the single covariate evaluation phase, and back elimination was conducted. Each covariate was removed from the full model, and the impact of that removal was assessed based on model output. The final model performance was assessed graphically and using simulation with a visual predictive check (VPC). […]
The asymptotic standard errors (SEs) and nonparamet ric bootstrapped confidence intervals (CIs) estimated the parameter precision. Other model statistics were evaluated, such as etabar and associated p values. […]
substantial skewness or kurtosis; therefore, transforms were not evaluated. […]
Plasma concentration data were evaluated using an LTBS approach. […]

Series [4] is described as follows: Posiphen pharmacokinetics compared across species (mouse, rat, dog, human). In kind it is in vivo. The protocol:
as §2, §1

Setting [5] is: both sexes, Beagle, dog, in vivo, po, 20 mg/kg.

Broadly, the Cmax is the highest concentration seen after dosing. The term half-life denotes the time in which the quantity being followed falls by half. A lower half-life goes with rapid decline. What is called Tmax is the time from dosing to the highest level. The term logD denotes lipophilicity at a set pH, counting ionised and neutral species. As usually defined, the Km is the substrate concentration at which the rate is half of its maximum. For `CN1CC[C@]2(C)c3cc(OC(=O)Nc4ccccc4)ccc3N(C)C12.O=C(O)C(O)C(O)C(=O)O` (stereo partly drawn) [Posiphen, (3aR)-1,3a, 8-trimethyl-1,2,3,3a, 8,8a-hexahydropyrrolo (2,3-b) indol-5-yl phenylcarbamate tartrate], the Mean plasma concentration is on record as 2.34 ng/mL in series [1] (0.25 h); 241 ng/mL in series [1] (0.5 h); 326 ng/mL in series [1] (1 h); 203 ng/mL in series [1] (2 h); 32.3 ng/mL in series [1] (4 h); 4.4 ng/mL in series [1] (8 h). In series [1] (12 h), this molecule displayed a Mean plasma concentration of 1.27 ng/mL. The Cmax worked out at 402 ng/mL in series [1] (setting [5]); 117 ng/mL in series [2] (human, in vivo, po); 120 ng/mL in series [2] (human, in vivo, po, 1.1 mg/kg). The half-life in series [1] (setting [5]) was 1.96 h; in series [4] (CSF or brain, oral) it was over 12 h. For the same molecule, the Tmax in series [1] (both sexes, Beagle, dog, in vivo, po, 20 mg/kg, read-out: Tmax) was 1 to 2 h; in series [1] (20 mg/kg), 1.18 h; in series [2] (human plasma), 1.45 h; in series [2] (human, in vivo, po, 1.1 mg/kg, human plasma, read-out: Tmax), 1 to 2 h. Also, the AUC(0-t) was found to be 756 ng·h/mL in series [1] (both sexes, Beagle, dog, in vivo, po, 20 mg/kg, read-out: AUC (0–8 h)); 310 ng·h/mL in series [2] (human, in vivo, po, 1.1 mg/kg, read-out: AUC (0–8 h)); 565 ng·h/mL in series [2] (human, in vivo, po, read-out: AUC (0-t)). For the same molecule, the “Primary compound in plasma” value in series [2] (human plasma) is given as “primary compound”. Further, the logD in “LogD” worked out at 2.2. Moreover, the Km in series [3] (human, plasma, oral, as dose increased from 0.04 to 2.4 mg/kg, read-out: Michaelis constant (km)) fell in the range of 0.01 to 0.015 µg/mL. Further, in series [3], the “Variability in absorption, metabolism and clearance between healthy subjects and Alzheimer's or Parkinson's patients” value was “no variability”. In series [4] (all analyzed species: mouse, rat, dog, human), the Time to peak is on record as at most 2 h.
